Data: patent US20090298834A1, “4-(AMINOMETHYL)CYCLOHEXANAMINE DERIVATIVES AS CALCIUM CHANNEL BLOCKERS” (priority 2008, published 2009)

Columns and labels:
[1] = biological target: T1, human α1H T-type channels (Homo sapiens, UniProt O95180); assay: T-type calcium channel block, whole cell patch clamp (α1H); format: cell-based; settings: HEK cells stably expressing human α1H; mainly non-inactivated protocol; values above 10 μM represented as 10 μM
T1 construct: expressed in transfected cells; host or cells: HEK 293
Method: (§1) T-type calcium channel blocking activity was assayed in human embryonic kidney cells, HEK 293, stably transfected with the T-type calcium channel subunits. Briefly, cells were cultured in Dulbecco's modified eagle medium (DMEM) supplemented with 10% fetal bovine serum, 200 U/ml penicillin and 0.2 mg/ml streptomycin at 37° C. with 5% CO2. At 85% confluency cells were split with 0.25% trypsin/1 mM EDTA and plated at 10% confluency on glass coverslips. At 12 hours the medium was replaced and the cells stably transfected using a standard calcium phosphate protocol and the appropriate calcium channel cDNA's. Fresh DMEM was supplied and the cells transferred to 28° C./5% CO2. Cells were incubated for 1 to 2 days prior to whole cell recording.
(§2) Standard patch-clamp techniques were employed to identify blockers of T-type currents. Briefly, previously described HEK cell lines stably expressing human α1G, α1H and α1I T-type channels were used for all the recordings (passage #: 4-20, 37° C., 5% CO2). Whole cell patch clamp experiments were performed using an Axopatch 200B amplifier (Axon Instruments, Burlingame, Calif.) linked to a personal computer equipped with pCLAMP software. Data were analyzed using Clampfit (Axon Instruments) and SigmaPlot 4.0 (Jandel Scientific). To obtain T-type currents, plastic dishes containing semi-confluent cells were positioned on the stage of a ZEISS AXIOVERT S100 microscope after replacing the culture medium with external solution (see below). Whole-cell patches were obtained using pipettes (borosilicate glass with filament, O.D.: 1.5 mm, I.D.: 0.86 mm, 10 cm length), fabricated on a SUTTER P-97 puller with resistance values of ˜5 MΩ (see below for internal solution).
(§3) In the non-inactivating protocol, the holding potential is set at −110 mV and with a pre-pulse at −100 mV for 1 second prior to the test pulse at −40 mV for 50 ms. In the inactivation protocol, the pre-pulse is at approximately −85 mV for 1 second, which inactivates about 15% of the T-type channels.
(§4) Test compounds were dissolved in external solution, 0.1-0.01% DMSO. After 10 min rest, they were applied by gravity close to the cell using a WPI microfil tubing. The “non-inactivated” pre-pulse was used to examine the resting block of a compound. The “inactivated” protocol was employed to study voltage-dependent block. However, the initial data shown below were mainly obtained using the non-inactivated protocol only. . IC50 values are shown for various compounds of the invention in Table 4 for the drug of interest. Values are shown in μM and values above 10 μM are simply represented as 10 μM.

[2] = biological target: T2, human α1G T-type channels (Homo sapiens, UniProt O43497); assay: T-type calcium channel block, whole cell patch clamp (α1G); format: cell-based; settings: HEK cells stably expressing human α1G; mainly non-inactivated protocol; values above 10 μM represented as 10 μM, values below 0.30 μM represented as 0.30 μM
T2 construct: expressed in transfected cells; host or cells: HEK 293
Method: as §1, §2, §3, §4

T1 sequence (O95180 whole entry): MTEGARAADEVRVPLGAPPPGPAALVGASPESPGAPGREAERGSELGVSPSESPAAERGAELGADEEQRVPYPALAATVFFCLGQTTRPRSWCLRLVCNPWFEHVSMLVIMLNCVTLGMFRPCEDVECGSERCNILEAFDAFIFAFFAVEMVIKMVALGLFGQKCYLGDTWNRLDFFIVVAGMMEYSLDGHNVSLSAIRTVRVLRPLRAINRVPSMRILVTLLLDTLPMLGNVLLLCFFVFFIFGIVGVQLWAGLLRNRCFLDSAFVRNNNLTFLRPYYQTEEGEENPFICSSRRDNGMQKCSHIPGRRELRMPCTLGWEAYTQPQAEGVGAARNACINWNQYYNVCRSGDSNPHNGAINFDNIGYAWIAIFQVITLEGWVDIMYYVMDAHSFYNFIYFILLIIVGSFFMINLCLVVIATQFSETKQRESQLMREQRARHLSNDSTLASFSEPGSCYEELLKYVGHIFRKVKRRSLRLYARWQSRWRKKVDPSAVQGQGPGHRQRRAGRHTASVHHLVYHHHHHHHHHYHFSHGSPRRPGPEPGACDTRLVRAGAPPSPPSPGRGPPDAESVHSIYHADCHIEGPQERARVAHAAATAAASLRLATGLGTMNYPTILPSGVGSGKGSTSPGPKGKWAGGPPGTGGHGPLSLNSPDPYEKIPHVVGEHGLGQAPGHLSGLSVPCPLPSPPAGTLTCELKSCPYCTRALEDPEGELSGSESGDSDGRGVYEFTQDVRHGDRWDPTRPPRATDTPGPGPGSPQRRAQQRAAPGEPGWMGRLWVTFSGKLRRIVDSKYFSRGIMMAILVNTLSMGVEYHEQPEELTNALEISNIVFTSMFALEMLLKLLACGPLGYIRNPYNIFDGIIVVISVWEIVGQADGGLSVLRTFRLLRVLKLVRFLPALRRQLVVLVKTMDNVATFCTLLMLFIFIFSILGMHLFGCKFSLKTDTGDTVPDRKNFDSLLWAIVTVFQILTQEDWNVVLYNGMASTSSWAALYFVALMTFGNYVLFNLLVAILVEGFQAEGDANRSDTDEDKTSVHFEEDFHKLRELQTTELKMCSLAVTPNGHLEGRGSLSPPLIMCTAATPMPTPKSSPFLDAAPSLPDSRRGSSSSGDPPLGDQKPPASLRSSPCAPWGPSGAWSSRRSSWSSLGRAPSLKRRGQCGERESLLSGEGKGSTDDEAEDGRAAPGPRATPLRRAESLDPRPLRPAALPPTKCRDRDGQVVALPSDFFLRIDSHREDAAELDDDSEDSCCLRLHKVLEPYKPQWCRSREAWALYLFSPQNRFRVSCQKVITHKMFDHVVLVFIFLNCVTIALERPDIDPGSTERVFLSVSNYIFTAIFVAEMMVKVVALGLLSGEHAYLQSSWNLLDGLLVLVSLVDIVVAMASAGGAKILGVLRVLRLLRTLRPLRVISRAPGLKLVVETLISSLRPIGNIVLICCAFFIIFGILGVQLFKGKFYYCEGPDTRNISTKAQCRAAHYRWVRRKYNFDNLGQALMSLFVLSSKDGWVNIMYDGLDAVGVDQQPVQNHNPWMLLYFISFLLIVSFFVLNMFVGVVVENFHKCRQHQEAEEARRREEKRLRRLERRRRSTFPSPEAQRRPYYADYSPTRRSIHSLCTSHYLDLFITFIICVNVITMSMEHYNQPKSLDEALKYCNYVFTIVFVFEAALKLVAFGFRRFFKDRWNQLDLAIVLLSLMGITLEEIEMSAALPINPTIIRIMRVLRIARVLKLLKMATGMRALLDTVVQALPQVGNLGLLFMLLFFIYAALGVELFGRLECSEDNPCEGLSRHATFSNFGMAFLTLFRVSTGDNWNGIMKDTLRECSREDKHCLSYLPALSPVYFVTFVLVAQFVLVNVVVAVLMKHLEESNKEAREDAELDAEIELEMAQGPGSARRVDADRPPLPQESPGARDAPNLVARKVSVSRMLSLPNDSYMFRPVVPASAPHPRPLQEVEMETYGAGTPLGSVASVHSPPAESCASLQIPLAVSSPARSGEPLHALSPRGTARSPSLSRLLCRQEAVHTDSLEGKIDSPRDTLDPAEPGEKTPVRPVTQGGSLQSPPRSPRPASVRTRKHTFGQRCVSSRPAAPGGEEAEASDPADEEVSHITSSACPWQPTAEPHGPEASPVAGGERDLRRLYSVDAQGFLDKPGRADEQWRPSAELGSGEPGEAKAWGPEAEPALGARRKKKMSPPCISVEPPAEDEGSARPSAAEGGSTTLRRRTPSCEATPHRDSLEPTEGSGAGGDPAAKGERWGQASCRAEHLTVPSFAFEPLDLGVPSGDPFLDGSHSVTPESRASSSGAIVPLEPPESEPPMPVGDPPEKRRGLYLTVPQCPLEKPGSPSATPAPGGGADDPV
T2 sequence (O43497 whole entry): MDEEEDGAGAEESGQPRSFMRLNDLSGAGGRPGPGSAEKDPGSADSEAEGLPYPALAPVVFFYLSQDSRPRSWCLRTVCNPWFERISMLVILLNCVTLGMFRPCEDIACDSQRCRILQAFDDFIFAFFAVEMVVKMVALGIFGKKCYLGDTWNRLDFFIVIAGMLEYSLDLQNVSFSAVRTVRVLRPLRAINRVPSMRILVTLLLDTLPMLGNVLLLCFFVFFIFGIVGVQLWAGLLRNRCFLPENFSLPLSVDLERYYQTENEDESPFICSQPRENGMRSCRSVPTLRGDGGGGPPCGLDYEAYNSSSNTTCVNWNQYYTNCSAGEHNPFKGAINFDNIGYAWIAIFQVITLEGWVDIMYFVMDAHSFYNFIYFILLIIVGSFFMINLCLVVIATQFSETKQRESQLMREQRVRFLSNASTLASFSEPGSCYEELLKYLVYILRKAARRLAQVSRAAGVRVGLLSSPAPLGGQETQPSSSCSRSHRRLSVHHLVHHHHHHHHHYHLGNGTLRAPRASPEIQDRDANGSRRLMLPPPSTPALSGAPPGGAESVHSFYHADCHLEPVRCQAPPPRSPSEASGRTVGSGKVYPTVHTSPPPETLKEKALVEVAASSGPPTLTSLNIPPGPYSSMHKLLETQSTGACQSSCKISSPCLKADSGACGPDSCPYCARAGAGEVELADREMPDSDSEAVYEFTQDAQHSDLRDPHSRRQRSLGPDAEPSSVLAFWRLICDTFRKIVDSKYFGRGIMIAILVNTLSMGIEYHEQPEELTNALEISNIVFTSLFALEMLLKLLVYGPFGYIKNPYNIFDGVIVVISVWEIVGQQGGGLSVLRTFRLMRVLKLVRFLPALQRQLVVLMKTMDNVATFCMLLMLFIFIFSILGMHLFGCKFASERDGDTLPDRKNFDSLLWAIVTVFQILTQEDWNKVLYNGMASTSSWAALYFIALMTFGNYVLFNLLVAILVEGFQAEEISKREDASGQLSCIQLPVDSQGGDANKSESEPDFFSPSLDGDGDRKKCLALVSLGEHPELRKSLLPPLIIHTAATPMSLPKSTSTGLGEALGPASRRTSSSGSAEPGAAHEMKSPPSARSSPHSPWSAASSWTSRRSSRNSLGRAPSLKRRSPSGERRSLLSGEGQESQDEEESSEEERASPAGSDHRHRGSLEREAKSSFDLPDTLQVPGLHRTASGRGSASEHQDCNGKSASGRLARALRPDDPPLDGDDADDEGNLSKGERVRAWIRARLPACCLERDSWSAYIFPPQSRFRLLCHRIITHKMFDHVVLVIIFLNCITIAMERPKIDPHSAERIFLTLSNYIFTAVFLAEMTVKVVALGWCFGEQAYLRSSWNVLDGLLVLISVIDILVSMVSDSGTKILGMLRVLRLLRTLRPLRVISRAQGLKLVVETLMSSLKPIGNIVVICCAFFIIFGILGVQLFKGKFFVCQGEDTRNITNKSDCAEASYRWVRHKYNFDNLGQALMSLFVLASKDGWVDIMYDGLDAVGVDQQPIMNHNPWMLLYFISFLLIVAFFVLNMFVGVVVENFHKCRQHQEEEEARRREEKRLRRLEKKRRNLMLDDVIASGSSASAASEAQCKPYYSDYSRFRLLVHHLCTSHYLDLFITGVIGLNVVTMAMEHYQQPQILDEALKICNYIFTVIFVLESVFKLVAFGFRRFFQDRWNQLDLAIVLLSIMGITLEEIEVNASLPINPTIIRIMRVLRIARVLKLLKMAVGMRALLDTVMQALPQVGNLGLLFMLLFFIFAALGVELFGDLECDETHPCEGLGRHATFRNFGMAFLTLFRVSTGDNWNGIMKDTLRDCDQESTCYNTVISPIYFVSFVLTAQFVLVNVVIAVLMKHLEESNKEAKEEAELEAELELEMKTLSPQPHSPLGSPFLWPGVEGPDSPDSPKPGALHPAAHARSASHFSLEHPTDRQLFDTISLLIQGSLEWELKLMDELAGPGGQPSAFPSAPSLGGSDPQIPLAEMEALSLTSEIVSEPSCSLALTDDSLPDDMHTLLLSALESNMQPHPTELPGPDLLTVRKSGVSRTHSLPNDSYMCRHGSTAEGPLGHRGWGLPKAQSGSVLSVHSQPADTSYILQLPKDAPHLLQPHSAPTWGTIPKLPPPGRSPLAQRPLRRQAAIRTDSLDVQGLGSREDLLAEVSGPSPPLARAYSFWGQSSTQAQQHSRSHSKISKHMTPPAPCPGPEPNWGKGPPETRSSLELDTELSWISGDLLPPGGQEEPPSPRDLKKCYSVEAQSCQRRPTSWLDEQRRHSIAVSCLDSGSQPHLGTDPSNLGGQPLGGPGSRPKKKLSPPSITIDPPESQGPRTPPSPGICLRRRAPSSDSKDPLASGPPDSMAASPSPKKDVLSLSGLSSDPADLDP

| Compound | IC50 [1] [nM] | IC50 [2] [nM] |
| --- | --- | --- |
| O=C(NC[C@H]1CC[C@H](NCc2ccccc2O)CC1)c1cc(C(F)(F)F)cc(C(F)(F)F)c1 [Compound 25, N-((trans-4-(2-hydroxybenzylamino)cyclohexyl)methyl)-3,5-bis(trifluoromethyl)benzamide] | 2450 | ≤ 300 |
| O=C(NC[C@H]1CC[C@H](NCc2cccnc2F)CC1)c1cc(C(F)(F)F)cc(C(F)(F)F)c1 [Compound 27, N-((trans-4-((2-fluoropyridin-3-yl)methylamino)cyclohexyl)methyl)-3,5-bis(trifluoromethyl)benzamide] | 9760 | 1970 |
| COc1ccccc1CN[C@H]1CC[C@H](CNC(=O)c2cc(C(F)(F)F)cc(C(F)(F)F)c2)CC1 [Compound 29, N-((trans-4-(2-methoxybenzylamino)cyclohexyl)methyl)-3,5-bis(trifluoromethyl)benzamide] | 800 | ≤ 300 |
| COc1cccnc1CN[C@H]1CC[C@H](CNC(=O)c2cc(C(F)(F)F)cc(C(F)(F)F)c2)CC1 [Compound 30, N-((trans-4-((3-methoxypyridin-2-yl)methylamino)cyclohexyl)methyl)-3,5-bis(trifluoromethyl)benzamide] | 5830 | 1060 |
| O=C(NC[C@H]1CC[C@H](NCc2cccc(F)c2O)CC1)c1cc(C(F)(F)F)cc(C(F)(F)F)c1 [Compound 31, N-((trans-4-(3-fluoro-2-hydroxybenzylamino)cyclohexyl)methyl)-3,5-bis(trifluoromethyl)benzamide] | 2470 | ≤ 300 |
| O=C(NC[C@H]1CC[C@H](NCc2c(O)cccc2F)CC1)c1cc(C(F)(F)F)cc(C(F)(F)F)c1 [Compound 32, N-((trans-4-(2-fluoro-6-hydroxybenzylamino)cyclohexyl)methyl)-3,5-bis(trifluoromethyl)benzamide] | 3450 | 330 |
| COc1cccc(O)c1CN[C@H]1CC[C@H](CNC(=O)c2cc(C(F)(F)F)cc(C(F)(F)F)c2)CC1 [Compound 33, N-((trans-4-(2-hydroxy-6-methoxybenzylamino)cyclohexyl)methyl)-3,5-bis(trifluoromethyl)benzamide] | 710 | ≤ 300 |
| O=C(NC[C@H]1CC[C@H](NCc2c(F)cccc2Cl)CC1)c1cc(C(F)(F)F)cc(C(F)(F)F)c1 [Compound 34, N-((trans-4-(2-chloro-6-fluorobenzylamino)cyclohexyl)methyl)-3,5-bis(trifluoromethyl)benzamide] | 1970 | ≤ 300 |
| COc1ccc(CN[C@H]2CC[C@H](CNC(=O)c3cc(C(F)(F)F)cc(C(F)(F)F)c3)CC2)c(OC)c1 [Compound 35, N-((trans-4-(2,4-dimethoxybenzylamino)cyclohexyl)methyl)-3,5-bis(trifluoromethyl)benzamide] | 770 | 390 |
| O=C(NC[C@H]1CC[C@@H](NCC(=O)N2CCCC2)CC1)c1cc(C(F)(F)F)cc(C(F)(F)F)c1 [Compound 39, N-((cis-4-(2-oxo-2-(pyrrolidin-1-yl)ethylamino)cyclohexyl)methyl)-3,5-bis(trifluoromethyl)benzamide] | 790 | 1330 |
| CC(C)(C)NC(=O)CN[C@H]1CC[C@@H](CNC(=O)c2cc(C(F)(F)F)cc(C(F)(F)F)c2)CC1 [Compound 40, N-((cis-4-(2-(tert-butylamino)-2-oxoethylamino)cyclohexyl)methyl)-3,5-bis(trifluoromethyl)benzamide] | 190 | ≤ 300 |
| CCN(CC)C(=O)CN[C@H]1CC[C@@H](CNC(=O)c2cc(C(F)(F)F)cc(C(F)(F)F)c2)CC1 [Compound 41, N-((cis-4-(2-(diethylamino)-2-oxoethylamino)cyclohexyl)methyl)-3,5-bis(trifluoromethyl)benzamide] | 330 | ≤ 300 |
| CCC(CC)NC(=O)CN[C@H]1CC[C@@H](CNC(=O)c2cc(C(F)(F)F)cc(C(F)(F)F)c2)CC1 [Compound 42, N-((cis-4-(2-oxo-2-(pentan-3-ylamino)ethylamino)cyclohexyl)methyl)-3,5-bis(trifluoromethyl)benzamide] | 120 | ≤ 300 |
| O=C(CN[C@H]1CC[C@@H](CNC(=O)c2cc(C(F)(F)F)cc(C(F)(F)F)c2)CC1)NCC(F)(F)F [Compound 43, N-((cis-4-(2-oxo-2-(2,2,2-trifluoroethylamino)ethylamino)cyclohexyl)methyl)-3,5-bis(trifluoromethyl)benzamide] | 450 | 910 |
| CN(C(=O)CN[C@H]1CC[C@@H](CNC(=O)c2cc(C(F)(F)F)cc(C(F)(F)F)c2)CC1)C1CCCC1 [Compound 44, N-((cis-4-(2-(cyclopentyl(methyl)amino)-2-oxoethylamino)cyclohexyl)methyl)-3,5-bis(trifluoromethyl)benzamide] | 260 | ≤ 300 |
| O=C(CN[C@H]1CC[C@@H](CNC(=O)c2cc(C(F)(F)F)cc(C(F)(F)F)c2)CC1)NN1CCCCC1 [Compound 45, N-((cis-4-(2-oxo-2-(piperidin-1-ylamino)ethylamino)cyclohexyl)methyl)-3,5-bis(trifluoromethyl)benzamide] | 450 | ≤ 300 |
| C#CC(CC)(CC)NC(=O)CN[C@H]1CC[C@@H](CNC(=O)c2cc(C(F)(F)F)cc(C(F)(F)F)c2)CC1 [Compound 47, N-((cis-4-(2-(3-ethylpent-1-yn-3-ylamino)-2-oxoethylamino)cyclohexyl)methyl)-3,5-bis(trifluoromethyl)benzamide] | 10 | ≤ 300 |
| O=C(CN[C@H]1CC[C@@H](CNC(=O)c2cc(C(F)(F)F)cc(C(F)(F)F)c2)CC1)NCC1CCCCC1 [Compound 48, N-((cis-4-(2-(cyclohexylmethylamino)-2-oxoethylamine)cyclohexyl)methyl)-3,5-bis(trifluoromethyl)benzamide] | 250 | 350 |
| COC1CCC(N(C)C(=O)CN[C@H]2CC[C@@H](CNC(=O)c3cc(C(F)(F)F)cc(C(F)(F)F)c3)CC2)CC1 (stereo partly drawn) [Compound 50, N-((cis-4-(2-((4-methoxycyclohexyl)(methyl)amino)-2-oxoethylamino)cyclohexyl)methyl)-3,5-bis(trifluoromethyl)benzamide] | 2470 | 4280 |
| CC(C)(C)c1nc(CN[C@H]2CC[C@@H](CNC(=O)c3cc(C(F)(F)F)cc(C(F)(F)F)c3)CC2)no1 [Compound 51, N-((cis-4-((5-tert-butyl-1,2,4-oxadiazol-3-yl)methylamino)cyclohexyl)methyl)-3,5-bis(trifluoromethyl)benzamide] | 820 | 1150 |
| Cc1cc(CN[C@H]2CC[C@@H](CNC(=O)c3cc(C(F)(F)F)cc(C(F)(F)F)c3)CC2)no1 [Compound 52, N-((cis-4-((5-methylisoxazol-3-yl)methylamino)cyclohexyl)methyl)-3,5-bis(trifluoromethyl)benzamide] | 1330 | 1240 |
| CCC1CCCN1C(=O)CN[C@H]1CC[C@@H](CNC(=O)c2cc(C(F)(F)F)cc(C(F)(F)F)c2)CC1 (stereo partly drawn) [Compound 54, N-((cis-4-(2-(2-ethylpyrrolidin-1-yl)-2-oxoethylamino)cyclohexyl)methyl)-3,5-bis(trifluoromethyl)benzamide] | 210 | ≤ 300 |
